In US10190119B2, “Mitochondrial phosphate carrier targets for treating soft-tissue calcification” (THE BRIGHAM AND WOMEN'S HOSPITAL, INC., priority 2014, dated 2019):

System: calcifying extracellular vesicles (EVs)
Assay: Aggregation of calcifying extracellular vesicles in a particle counting device
Conditions: 100 μM NEM, vesicles from smooth muscle cells cultured in calcifying conditions, cell-free, 37° C., FIG. 5
Protocol: Calcification has been previously linked to aggregation of extracellular vesicles. Therefore, vesicles were collected from smooth muscle cells cultured in calcifying conditions and incubated in cell-free conditions at 37° C. within a particle counting device. […] Aggregation of calcifying vesicles was observed by a reduction in total particles counted from 8 h to 20 h of incubation, as shown in FIG. 5. […] Without wishing to be bound by theory, it is hypothesized that this reduction is due to the inhibition of phosphate carriers on the vesicles, which blocks phosphate transport into the vesicles, and in turn preventing mineral formation.

## CCN1C(=O)C=CC1=O [NEM, N-ethylmaleimide]
  reduction in total particles (vesicle counts) from 8 h to 20 h of incubation: mitigated the reduction in vesicle counts
